Experimental data as given in patent US9126999B2, “Tetrahydropyrazolopyrimidine compounds” (EISAI R&D MANAGEMENT CO., LTD., priority 2012, dated 2015).

Test system: BXSB-Yaa mice
Test: BXSB-Yaa strain lupus disease model
Type: in vivo, mouse
Settings: for proteinuria: UACR; for Grade 3/4 nephritis onset: kidney histopathology
Experimental: Figure Legend: Twelve week old BXSB-Yaa mice were randomized into groups with equivalent median anti-dsDNA titers and treated once-a-day orally with Vehicle (Veh; 0.5% methyl-cellulose) alone or 300 mg/kg ER-892887 for 14 weeks total. (A) All mice were sacrificed at 26 weeks of age and final anti-dsDNA, anti-Sm/nRNP, and anti-RiboP titers were evaluated by ELISA as compared to titers observed in 6 wk old pre-diseased mice. (B) Approximately one week prior to sacrifice (25 weeks of age, 13 weeks of treatment), mice were housed 1-2 per cage in metabolic cages for 18 hours to collect urine, and the Urinary Albumin Creatinine Ratio (UACR, proteinuria) was determined for each animal as an indirect measure of kidney function. (C) At the time of sacrifice, kidneys were collected from individual mice, fixed in 10% formalin for 24 hours, embedded in paraffin, and H&E stained sections were generated for histopathology assessment in a blinded fashion. (D) Summary of mortality observed in the SLE-8 study. Statistical significance was determined by Mann-Whitney test for (A).
Figure Legend: Nine week old male BXSB-Yaa mice were treated once-a-day orally with Vehicle (Veh; 0.5% methyl-cellulose) alone or 100 mg/kg or 300 mg/kg ER-885454 for 15 weeks total. All mice were sacrificed at 24 weeks of age and final anti-dsDNA (A) and anti-Sm/RNP (B) titers were evaluated by ELISA. (C) Approximately one week prior to sacrifice, mice were housed 1-2 per cage in metabolic cages for 18 hours to collect urine, and the Urinary Albumin Creatinine Ratio (UACR, proteinuria) was determined for each animal as an indirect measure of kidney function. (D) At the time of sacrifice, kidneys were collected from individual mice, fixed in 10% formalin for 24 hours, embedded in paraffin, and H&E stained sections were generated for histopathology assessment in a blinded fashion. Statistical significance was determined by Mann-Whitney test for (A), (B), and (C) above.
Figure Legend: Seventeen week old BXSB-Yaa mice were randomized into two groups with equivalent median anti-dsDNA titers and treated once-a-day orally with Vehicle (Veh; 0.5% methyl-cellulose) alone or 300 mg/kg ER-885454 for 13 weeks total. All mice were sacrificed at 30 weeks of age and final anti-dsDNA (A) and anti-Sm/RNP (B) titers were evaluated by ELISA as compared to titers observed in 7 wk old pre-diseased mice. (C) Approximately one week prior to sacrifice, mice were housed 1-2 per cage in metabolic cages for 18 hours to collect urine, and the Urinary Albumin Creatinine Ratio (UACR, proteinuria) was determined for each animal as an indirect measure of kidney function. (D) At the time of sacrifice, kidneys were collected from individual mice, fixed in 10% formalin for 24 hours, embedded in paraffin, and H&E stained sections were generated for histopathology assessment in a blinded fashion. Statistical significance was determined by Mann-Whitney test for (A), (B), and (C) above.
Male BXSB-Yaa and female NZBWF1/J mice were purchased from Jackson Labs (Bar Harbor, Me.), both of which manifest with spontaneous lupus disease. Female DBA/1 mice were purchased from Harlan Laboratories (Indianapolis, Ind.) and at the indicated ages given an intraperitoneal injection of 0.5 ml pristane (2,6,10,14-Tetramethylpentadecane; Sigma, St. Louis, Mo.) to chemically induce lupus disease or of 0.5 ml PBS to generate age-matched, non-diseased control mice. Mice were dosed daily by oral administration of compound or drug in 0.5% methylcellulose, for the time period indicated.
Anti-dsDNA, -Sm/nRNP, -RiboP, and Histone titers were evaluated by standard ELISA approach. Briefly, 96-well EIA/RIA ELISA plates (Corning) were coated with 100 ul of diluted antigen in PBS for 90 minutes at room temperature as follows (final concentrations indicated): 10 U/ml Sm/nRNP complex (Immunovision), 10 ug/ml calf thymus dsDNA (Sigma), 5 U/ml RiboP (Immunovision), and 5 ug/ml Histone (Immunovision). […]

Compound	proteinuria	Grade 3/4 nephritis onset	anti-dsDNA titers (once-a-day oral)	anti-Sm/nRNP titers (once-a-day oral)
COc1ccc([C@@H]2C[C@H](C(F)(F)F)n3nc(-c4ccc(C(=O)N5CCNCC5)cc4)cc3N2)cc1OC [ER-892887, (4-((5S,7R)-5-(3,4-dimethoxyphenyl)-7-(trifluoromethyl)-4,5,6,7-tetrahydropyrazolo[1,5-a]pyrimidin-2-yl)phenyl)(piperazin-1-yl)methanone]	trend towards reduced proteinuria	complete prevention	significantly reduced	–
COc1ccc([C@@H]2C[C@H](C(F)(F)F)n3nc(-c4ccncc4)cc3N2)cc1OC [ER-885454]	significantly reduced proteinuria	complete prevention	significantly reduced	significantly reduced
